US20250109139A1, “TRICYCLIC COMPOUND, AND PREPARATION METHOD THEREFOR AND USE THEREOF” (SHANGHAITECH UNIVERSITY, priority 2022, published 2025)
Where two headings read alike, the source gives them in different places.

What was measured:
dopamine D2 receptors [1] = molecular target: T1, dopamine D2 receptors (Homo sapiens (Human), UniProt P14416); assay: Dopamine D2 receptor Gαi1 BRET (G protein trimer dissociation); type: cell-based; conditions: for Emax: relative to endogenous ligand dopamine, read-out: Gαi1 BRET Emax % ± SEM
T1 sequence (P14416 whole entry): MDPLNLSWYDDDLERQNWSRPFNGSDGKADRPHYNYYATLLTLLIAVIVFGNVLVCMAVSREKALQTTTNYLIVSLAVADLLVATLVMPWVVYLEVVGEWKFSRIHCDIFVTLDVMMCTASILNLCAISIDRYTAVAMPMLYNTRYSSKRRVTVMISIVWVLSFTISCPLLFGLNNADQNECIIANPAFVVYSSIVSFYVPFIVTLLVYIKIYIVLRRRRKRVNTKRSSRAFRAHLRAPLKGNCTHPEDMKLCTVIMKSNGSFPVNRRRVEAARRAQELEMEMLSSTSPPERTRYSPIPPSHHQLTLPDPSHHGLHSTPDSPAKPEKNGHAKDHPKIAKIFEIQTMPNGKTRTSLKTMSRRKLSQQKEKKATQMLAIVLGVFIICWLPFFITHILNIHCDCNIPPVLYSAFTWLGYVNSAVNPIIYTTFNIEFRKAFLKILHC
Experimental: (§1) To examine the downstream G-protein signaling pathway mediated by dopamine D2 receptors, on the first day, a 6 cm culture dish was used for transfection with 1 μg of dopamine D2 receptors, 1 μg of Gαi1 containing C-terminal seaweed luciferase (Gαi1-Rluc), 1 μg of Gβ3, 1 μg of Gγ9 containing C-terminal green fluorescent protein (Gγ9-GFP) mixed with 16 μL of PEI. At the same time, in order to examine the downstream β-arrestin2 signaling pathway mediated by dopamine D2 receptors, on the first day, a 6 cm culture dish was used for transfection with […] of dopamine D2 receptors containing C-terminal seaweed luciferase (D2-Rluc), […] of G protein-coupled receptor kinase 2 (GRK2), […] of β-arrestin2 containing N-terminal green fluorescent protein (GFP2-ARRB2) mixed with 14 μL of PEI. The next day, the confluent cells of a 6 cm culture dish were digested and reseeded into a 96-well plate with 100 μL of culture medium added to each well. On the third day, the drugs were added for test. The 96-well plate was taken out from the cell incubator to decant the culture medium, 40 μL of the substrate coelenterazine 400a (final concentration of 5 μM) was added to each well, and then 20 μL of different drugs were added sequentially from left to right to ensure that the final concentration of the drug decreased gradually from bottom to top, with two replicates per treatment. Finally, the prepared samples were loaded on machine for test. The machine readout value reflected the recruitment of β-arrestin2 to the membrane or the dissociation of G protein trimer. The former indicated the degree of activation of the β-arrestin2 signaling pathway downstream of the dopamine D2 receptors, and the latter indicated the degree of activation of the G protein signaling pathway downstream of the dopamine D2 receptors.

dopamine D2 receptors [2] = molecular target: T1, dopamine D2 receptors; assay: Dopamine D2 receptor β-arrestin2 BRET (recruitment); type: cell-based; conditions: for Emax: relative to endogenous ligand dopamine, read-out: β-arrestin2 BRET Emax % ± SEM
Experimental: as §1

dopamine D2 receptors [3] = molecular target: T1, dopamine D2 receptors; assay: Dopamine D2 receptor radioligand competition binding assay ([3H]-Methylspiperone); conditions: [3H]-Methylspiperone 0.3 to 0.5 nM, 293T membranes
Experimental: The affinity of the compounds of the present disclosure for dopamine D2 receptors was determined by a radioligand competition binding assay.
In the first step, a cell membrane component containing specific dopamine D2 receptors was prepared. A 10 cm culture dish was used for transfection with […] of dopamine D2 receptors and 40 μL of polyethylenimine (PEI hereafter). […] A vacuum pump was used to suck off the culture medium, 3 mL of lysis buffer was added to each culture dish, and the cells were placed in a 4° C. cold room for 10 minutes. After the cells were detached, the cells were transferred to a 15 mL centrifuge tube and centrifuged at 1500 rpm for 5 minutes at 4° C., and the supernatant was discarded. The cell pellet was transferred to a tissue homogenizer, and 3 mL of lysis buffer was added and fully ground until the cells were broken. Then, cell suspension was equally aliquoted into several EP tubes, centrifuged at 12000 rpm for 5 minutes at 4° C., and the supernatant was discarded. The precipitate was the cell membrane component containing the dopamine D2 receptors.
First, a standard binding buffer was added to the cell membrane component containing the dopamine D2 receptors, and the cell membrane was disrupted and resuspended with an electric tissue homogenizer. 30 μL of membrane protein suspension was added to each well of a 96-well plate. Then, 30 μL of different drugs were added to the 96-well plate sequentially from bottom to top to ensure that the final drug concentrations were 10^−5 M, 10^−6 M, 10^−7 M, 10^−8 M, 10^−9 M, and 0 M, with two replicates per treatment. Next, 30 μL of [3H]-Methylspiperone was added to each well of the 96-well plate. The plate was incubated at room temperature in the dark for 2 hours. Detection was conducted. The machine readout value reflected the amount of [3H]-Methylspiperone bound on the membrane, and after further data processing, the affinity Ki values of different compounds for the dopamine D2 receptors were obtained.

[4] = unit printed only in Cariprazine cell, read-out: Gαi1 BRET EC50
[5] = unit printed only in Cariprazine cell, read-out: β-arrestin2 BRET EC50
[6] = read-out: Gαi1 BRET pEC50 ± SEM (converted)
[7] = read-out: Affinity pKi ± SEM (converted)

COc1cccc2c3c(oc12)CN(CCCCOc1ccc2ccc(=O)n(C)c2c1)CC3 [I-A4, 7-(4-(8-methoxy-3,4-dihydrobenzofuro[2,3-c]pyridin-2(1H)-yl)butoxy)-1-methylquinolin-2(1H)-one]
Gαi1 BRET pEC50 ± SEM (dopamine D2 receptors [1]): (6.16 ± 0.06)
Emax (dopamine D2 receptors [1]): 55%
EC50 (dopamine D2 receptors [1]; [4]): 709 nM
β-arrestin2 BRET pEC50 ± SEM (dopamine D2 receptors [2]): (7.17 ± 0.18)
Emax (dopamine D2 receptors [2]): 65%
EC50 (dopamine D2 receptors [2]; [5]): 81.2 nM

COc1cccc2c3c(oc12)CN(CCCOc1ccc2ccc(=O)[nH]c2c1)CC3 [I-A8, 7-(3-(8-methoxy-3,4-dihydrobenzofuro[2,3-c]pyridin-2(1H)-yl)propoxy)quinolin-2(1H)-one]
Affinity pKi ± SEM (dopamine D2 receptors [3]): (6.82 ± 0.16)
Ki (dopamine D2 receptors [3]; read-out: Affinity Ki): 149 nM
Emax (dopamine D2 receptors [1]): 68%
EC50 (dopamine D2 receptors [1]; [4]): 0.15 nM
Emax (dopamine D2 receptors [2]): 103%
EC50 (dopamine D2 receptors [2]; [5]): 52.6 nM

COc1cccc2c3c(oc12)CN(CCNC(=O)C1CCOCC1)CC3 [I-A14, N-(2-(8-methoxy-3,4-dihydrobenzofuro[2,3-c]pyridin-2(1H)-yl)ethyl)tetrahydro-2H-pyran-4-carboxamide]
Ki (dopamine D2 receptors [3]; read-out: Affinity Ki): 752 nM

CCOc1cccc2c3c(oc12)CN(CC[C@H]1CC[C@H](NC(=O)N(C)C)CC1)CC3 [I-A17, 3-(trans-4-(2-(8-ethoxy-3,4-dihydrobenzofuro[2,3-c]pyridin-2(1H)-yl)ethyl)cyclohexyl)-1,1-dimethylurea]
EC50 (dopamine D2 receptors [1]; [6]): 3.67 nM
Emax (dopamine D2 receptors [1]): 49%
EC50 (dopamine D2 receptors [1]; [4]): 4.37 nM
Emax (dopamine D2 receptors [2]): 29%
EC50 (dopamine D2 receptors [2]; [5]): 6.7 nM

CCOc1cccc2c3c([nH]c12)CN(CCCCOc1ccc2ccc(=O)[nH]c2c1)CC3 [I-B2, 7-(4-(8-ethoxy-1,3,4,9-tetrahydro-2H-pyrido[3,4-b]indol-2-yl)butoxy)quinolin-2(1H)-one]
Ki (dopamine D2 receptors [3]; read-out: Affinity Ki): 78.9 nM
Ki (dopamine D2 receptors [3]; [7]): 77.6 nM

CCOc1cccc2c3c([nH]c12)CN(CCCOc1ccc2ccc(=O)[nH]c2c1)CC3 [I-B4, 7-(3-(8-ethoxy-1,3,4,9-tetrahydro-2H-pyrido[3,4-b]indol-2-yl)propoxy)quinolin-2(1H)-one]
Affinity pKi ± SEM (dopamine D2 receptors [3]): (6.13 ± 0.26)
Ki (dopamine D2 receptors [3]; read-out: Affinity Ki): 728 nM

COc1cccc2c3c([nH]c12)CN(CCCOc1ccc2c(c1)NC(=O)CC2)CC3 [I-B5, 7-(3-(8-methoxy-1,3,4,9-tetrahydro-2H-pyrido[3,4-b]indol-2-yl)propoxy)-3,4-dihydroquinolin-2(1H)-one]
Emax (dopamine D2 receptors [1]): 35%
EC50 (dopamine D2 receptors [1]; [4]): 43.6 nM
Emax (dopamine D2 receptors [2]): 76%
EC50 (dopamine D2 receptors [2]; [5]): 6.53 nM

CCOc1cccc2c3c([nH]c12)CN(CCCOc1ccc2c(c1)NC(=O)CC2)CC3 [I-B6, 7-(3-(8-ethoxy-1,3,4,9-tetrahydro-2H-pyrido[3,4-b]indol-2-yl)propoxy)-3,4-dihydroquinolin-2(1H)-one]
Affinity pKi ± SEM (dopamine D2 receptors [3]): (6.58 ± 0.41)
Ki (dopamine D2 receptors [3]; read-out: Affinity Ki): 266 nM

COc1cccc2c3c([nH]c12)CN(CC1(O)CCCCC1)CC3 [I-B9, 1-((8-methoxy-1,3,4,9-tetrahydro-2H-pyrido[3,4-b]indol-2-yl)methyl)cyclohexan-1-ol]
EC50 (dopamine D2 receptors [1]; [6]): 61.7 nM
Emax (dopamine D2 receptors [1]): 14%
EC50 (dopamine D2 receptors [1]; [4]): 43.3 nM
Emax (dopamine D2 receptors [2]): 51%
EC50 (dopamine D2 receptors [2]; [5]): 133 nM

COc1cccc2c3c([nH]c12)CN(CCC1CC(NC(=O)N(C)C)C1)CC3 (stereo not drawn) [I-B10, 3-(3-(2-(8-methoxy-1,3,4,9-tetrahydro-2H-pyrido[3,4-b]indol-2-yl)ethyl)cyclobutyl)-1,1-dimethylurea]
Affinity pKi ± SEM (dopamine D2 receptors [3]): (7.63 ± 0.57)
Ki (dopamine D2 receptors [3]; read-out: Affinity Ki): 23.2 nM

COc1cccc2c1cc1n2CCN(C/C=C/COc2ccc3c(c2)NC(=O)CC3)C1 [I-C6, (E)-7-((4-(9-methoxy-3,4-dihydropyrazino[1,2-a]indol-2(1H)-yl)but-2-en-1-yl)oxy)-3,4-dihydroquinolin-2(1H)-one]
Emax (dopamine D2 receptors [1]): 49%
EC50 (dopamine D2 receptors [1]; [4]): 276 nM
Emax (dopamine D2 receptors [2]): 92%
EC50 (dopamine D2 receptors [2]; [5]): 2.45 nM

CCOc1cccc2c1cc1n2CCN(CCCCOc2ccc3ccc(=O)[nH]c3c2)C1 [I-C10, 7-(4-(9-ethoxy-3,4-dihydropyrazino[1,2-a]indol-2(1H)-yl)butoxy)quinolin-2(1H)-one]
EC50 (dopamine D2 receptors [1]; [6]): 120 nM
Emax (dopamine D2 receptors [1]): 20%
EC50 (dopamine D2 receptors [1]; [4]): 118 nM
Emax (dopamine D2 receptors [2]): 49%
EC50 (dopamine D2 receptors [2]; [5]): 828 nM

CCOc1cccc2c1cc1n2CCN(CC[C@H]2CC[C@H](NC(=O)N(C)C)CC2)C1 [I-C11, 3-(trans-4-(2-(9-ethoxy-3,4-dihydropyrazino[1,2-a]indol-2(1H)-yl)ethyl)cyclohexyl)-1,1-dimethylurea]
Emax (dopamine D2 receptors [1]): 23%
EC50 (dopamine D2 receptors [1]; [4]): 39.8 nM
Emax (dopamine D2 receptors [2]): 45%
EC50 (dopamine D2 receptors [2]; [5]): 128 nM

COc1cccc2c1cc1n2CCN(CC2(O)CCCCC2)C1 [I-C12, 1-((9-methoxy-3,4-dihydropyrazino[1,2-a]indol-2(1H)-yl)methyl)cyclohexan-1-ol]
EC50 (dopamine D2 receptors [1]; [6]): 38.9 nM
Emax (dopamine D2 receptors [1]): 66%
EC50 (dopamine D2 receptors [1]; [4]): 23.4 nM
Emax (dopamine D2 receptors [2]): 52%
EC50 (dopamine D2 receptors [2]; [5]): 54.4 nM

COc1cccc2c1nc1n2CCN(CCCCOc2ccc3ccc(=O)[nH]c3c2)C1 [I-D1, 7-(4-(9-methoxy-3,4-dihydrobenzo[4,5]imidazo[1,2-a]pyrazin-2(1H)-yl)butoxy)quinolin-2(1H)-one]
EC50 (dopamine D2 receptors [1]; [6]): 263 nM
Emax (dopamine D2 receptors [1]): 77%
EC50 (dopamine D2 receptors [1]; [4]): 267 nM
Emax (dopamine D2 receptors [2]): 100%
EC50 (dopamine D2 receptors [2]; [5]): 56 nM

COc1cccc2c1nc1n2CCN(CCCCOc2ccc3c(c2)NC(=O)CC3)C1 [I-D2, 7-(4-(9-methoxy-3,4-dihydrobenzo[4,5]imidazo[1,2-a]pyrazin-2(1H)-yl)butoxy)-3,4-dihydroquinolin-2(1H)-one]
EC50 (dopamine D2 receptors [1]; [6]): 324 nM
Emax (dopamine D2 receptors [1]): 71%
EC50 (dopamine D2 receptors [1]; [4]): 355 nM
EC50 (dopamine D2 receptors [2]; read-out: β-arrestin2 BRET pEC50 ± SEM (converted)): 69.2 nM
Emax (dopamine D2 receptors [2]): 106%
EC50 (dopamine D2 receptors [2]; [5]): 70.1 nM

COc1cccc2c1nc1n2CCN(CCCOc2ccc3ccc(=O)[nH]c3c2)C1 [I-D3, 7-(3-(9-methoxy-3,4-dihydrobenzo[4,5]imidazo[1,2-a]pyrazin-2(1H)-yl)propoxy)quinolin-2(1H)-one]
Emax (dopamine D2 receptors [1]): 71%
EC50 (dopamine D2 receptors [1]; [4]): 130 nM
Emax (dopamine D2 receptors [2]): 97%
EC50 (dopamine D2 receptors [2]; [5]): 18.3 nM

COc1cccc2c1nc1n2CCN(CCCOc2ccc3c(c2)NC(=O)CC3)C1 [I-D4, 7-(3-(9-methoxy-3,4-dihydrobenzo[4,5]imidazo[1,2-a]pyrazin-2(1H)-yl)propoxy)-3,4-dihydroquinolin-2(1H)-one]
Emax (dopamine D2 receptors [1]): 81%
EC50 (dopamine D2 receptors [1]; [4]): 159 nM
Emax (dopamine D2 receptors [2]): 89%
EC50 (dopamine D2 receptors [2]; [5]): 33.6 nM

COc1cccc2c1nc1n2CCN(C/C=C/COc2ccc3c(c2)NC(=O)CC3)C1 [I-D5, (E)-7-((4-(9-methoxy-3,4-dihydrobenzo[4,5]imidazo[1,2-a]pyrazin-2(1H)-yl)but-2-en-1-yl)oxy)-3,4-dihydroquinolin-2(1H)-one]
EC50 (dopamine D2 receptors [1]; [6]): 162 nM
Emax (dopamine D2 receptors [1]): 46%
EC50 (dopamine D2 receptors [1]; [4]): 160 nM
Emax (dopamine D2 receptors [2]): 66%
EC50 (dopamine D2 receptors [2]; [5]): 38.8 nM

COc1cccc2c1nc1n2CCN(CC[C@H]2CC[C@H](NC(=O)N(C)C)CC2)C1 [I-D6, 3-(trans-4-(2-(9-methoxy-3,4-dihydrobenzo[4,5]imidazo[1,2-a]pyrazin-2(1H)-yl)ethyl)cyclohexyl)-1,1-dimethylurea]
Ki (dopamine D2 receptors [3]; read-out: Affinity Ki): 16.8 nM
Ki (dopamine D2 receptors [3]; [7]): 12.9 nM

COc1cccc2c1nc1n2CCN(CC2(O)CCCCC2)C1 [I-D7, 1-((9-methoxy-3,4-dihydrobenzo[4,5]imidazo[1,2-a]pyrazin-2(1H)-yl)methyl)cyclohexan-1-ol]
EC50 (dopamine D2 receptors [1]; [6]): 95.5 nM
Emax (dopamine D2 receptors [1]): 67%
EC50 (dopamine D2 receptors [1]; [4]): 79 nM
Emax (dopamine D2 receptors [2]): 41%
EC50 (dopamine D2 receptors [2]; [5]): 180 nM
